22 compounds from US20230312587A1, “PTERIDINONE COMPOUNDS AND USES THEREOF” (Vertex Pharmaceutical Incorporated, priority 2018, published 2023) can be followed below.

The subject of the test is β-catenin-TCF-mediated reporter transcription activity in Colo 205 cells. In words: Colo 205 reporter assay (TCF/LEF luciferase). Type of test: cell-based. As to conditions: Colo 205 TCF/LEF luciferase reporter, five hours after addition of compound, read-out: TCF reporter Colo205 IC50. The procedure, abridged:
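Luciferase signal from a TCF/LEF-driven reporter, stably integrated in Colo 205 colon cancer cells, was measured 5 h after compound addition.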

Read-outs that look alike come from different tables or passages of the source.

By IC50 is commonly meant the point on the concentration scale where inhibition reaches its midpoint. On to `Cc1nc(NCc2cnn(Cc3cnccc3C(F)(F)F)c2)nc2c1NC(=O)[C@H](C)N2C` [Compound 182, (7S)-4,7,8-trimethyl-2-(((1-((4-(trifluoromethyl)pyridin-3-yl)methyl)-1H-pyrazol-4-yl)methyl)amino)-7,8-dihydropteridin-6(5H)-one], for which, where the note is “Homo sapiens, COLO 205, 5 h”, the IC50 is below 300 nM.
In the case of `Cc1nc(NCc2cnn(Cc3cccnc3C(F)(F)F)c2)nc2c1NC(=O)[C@H](C)N2C` [Compound 183], the IC50 is below 300 nM.
For the compound `Cc1nc(NCc2cnn(Cc3cccc(C(F)(F)F)n3)c2)nc2c1NC(=O)[C@H](C)N2C` [Compound 184, (7S)-4,7,8-trimethyl-2-(((1-((6-(trifluoromethyl)pyridin-2-yl)methyl)-1H-pyrazol-4-yl)methyl)amino)-7,8-dihydropteridin-6(5H)-one], where the note is “Homo sapiens, COLO 205, 5 h”, the IC50 is below 300 nM.
The same measure, in the same setting: the result for `Cc1nc(NCc2cnn(Cc3ccnc(Cl)c3)c2)nc2c1NC(=O)[C@H](C)N2C` [Compound 185, (7S)-2-(((1-((2-chloropyridin-4-yl)methyl)-1H-pyrazol-4-yl)methyl)amino)-4,7,8-trimethyl-7,8-dihydropteridin-6(5H)-one] reads 300 to 1000 nM.
Regarding `Cc1nc(NCc2cnn(Cc3ccncc3C(F)(F)F)c2)nc2c1NC(=O)[C@H](C)N2C` [Compound 187, (7S)-4,7,8-trimethyl-2-(((1-((3-(trifluoromethyl)pyridin-4-yl)methyl)-1H-pyrazol-4-yl)methyl)amino)-7,8-dihydropteridin-6(5H)-one], the IC50 (Homo sapiens, COLO 205, 5 h) was below 300 nM.
For `CCn1nc(C(F)(F)F)cc1Cn1cc(CNc2nc(C)c3c(n2)N(C)[C@@H](C)C(=O)N3)cn1` [Compound 189, (7S)-2-(((1-((1-ethyl-3-(trifluoromethyl)-1H-pyrazol-5-yl)methyl)-1H-pyrazol-4-yl)methyl)amino)-4,7,8-trimethyl-7,8-dihydropteridin-6(5H)-one], the IC50 (Homo sapiens, COLO 205, 5 h) was below 300 nM.
Same read-out and setting: the value for `Cc1nc(NCc2cnn(Cc3cc(C(F)(F)F)n(C)n3)c2)nc2c1NC(=O)[C@H](C)N2C` [Compound 190, (7S)-4,7,8-trimethyl-2-(((1-((1-methyl-5-(trifluoromethyl)-1H-pyrazol-3-yl)methyl)-1H-pyrazol-4-yl)methyl)amino)-7,8-dihydropteridin-6(5H)-one] was 300 to 1000 nM.
The same measure, in the same setting: the value for `CCn1ccnc1Cn1cc(CNc2nc(C)c3c(n2)N(C)[C@@H](C)C(=O)N3)cn1` [Compound 191, (7S)-2-(((1-((1-ethyl-1H-imidazol-2-yl)methyl)-1H-pyrazol-4-yl)methyl)amino)-4,7,8-trimethyl-7,8-dihydropteridin-6(5H)-one] was 1000 to 5000 nM; that for `Cc1nc(Cn2cc(CNc3nc(C)c4c(n3)N(C)[C@@H](C)C(=O)N4)cn2)c(C)o1` [Compound 193, (7S)-2-(((1-((2,5-dimethyloxazol-4-yl)methyl)-1H-pyrazol-4-yl)methyl)amino)-4,7,8-trimethyl-7,8-dihydropteridin-6(5H)-one] was 300 to 1000 nM.
The same measure, in the same setting: the result for `Cc1nc(NCc2cnn(Cc3ccc(Cl)nc3)c2)nc2c1NC(=O)[C@H](C)N2C` [Compound 194, (7S)-2-(((1-((6-chloropyridin-3-yl)methyl)-1H-pyrazol-4-yl)methyl)amino)-4,7,8-trimethyl-7,8-dihydropteridin-6(5H)-one] reads below 300 nM; that for `C[C@H]1C(=O)Nc2cnc(NCc3cnn(Cc4ccc(C(F)(F)F)nc4)c3)nc2N1C` [Compound 195, (7S)-7,8-dimethyl-2-(((1-((6-(trifluoromethyl)pyridin-3-yl)methyl)-1H-pyrazol-4-yl)methyl)amino)-7,8-dihydropteridin-6(5H)-one], 300 to 1000 nM.
As for `Cc1nc(NCc2cnn(Cc3ccc(N(C)C)nc3)c2)nc2c1NC(=O)[C@H](C)N2C` [Compound 196, (7S)-2-(((1-((6-(dimethylamino)pyridin-3-yl)methyl)-1H-pyrazol-4-yl)methyl)amino)-4,7,8-trimethyl-7,8-dihydropteridin-6(5H)-one], under “Homo sapiens, COLO 205, 5 h”, the IC50 was 300 to 1000 nM.
On the same count and under the same terms, the result for `COc1ccc(Cn2cc(CNc3nc(C)c4c(n3)N(C)[C@@H](C)C(=O)N4)cn2)cn1` [Compound 197, (7S)-2-(((1-((6-methoxypyridin-3-yl)methyl)-1H-pyrazol-4-yl)methyl)amino)-4,7,8-trimethyl-7,8-dihydropteridin-6(5H)-one] reads below 300 nM; that for `Cc1nc(NCc2cnn(Cc3cccnc3)c2)nc2c1NC(=O)[C@H](C)N2C` [Compound 198, (7S)-4,7,8-trimethyl-2-(((1-(pyridin-3-ylmethyl)-1H-pyrazol-4-yl)methyl)amino)-7,8-dihydropteridin-6(5H)-one], 1000 to 5000 nM; that for `Cc1cc(Cn2cc(CNc3nc(C)c4c(n3)N(C)[C@@H](C)C(=O)N4)cn2)cnc1C(F)(F)F` [Compound 199, (7S)-4,7,8-trimethyl-2-(((1-((5-methyl-6-(trifluoromethyl)pyridin-3-yl)methyl)-1H-pyrazol-4-yl)methyl)amino)-7,8-dihydropteridin-6(5H)-one], below 300 nM.
Still for that read-out and setting: the value for `Cc1nc(NCc2cnn(Cc3ccc(C(F)(F)F)cn3)c2)nc2c1NC(=O)[C@H](C)N2C` [Compound 200, (7S)-4,7,8-trimethyl-2-(((1-((5-(trifluoromethyl)pyridin-2-yl)methyl)-1H-pyrazol-4-yl)methyl)amino)-7,8-dihydropteridin-6(5H)-one] was 300 to 1000 nM; that for `Cc1nc(NCc2cnn(Cc3cc(C(F)(F)F)ccn3)c2)nc2c1NC(=O)[C@H](C)N2C` [Compound 201, (7S)-4,7,8-trimethyl-2-(((1-((4-(trifluoromethyl)pyridin-2-yl)methyl)-1H-pyrazol-4-yl)methyl)amino)-7,8-dihydropteridin-6(5H)-one] was 300 to 1000 nM.
On the same count and under the same terms, the value for `Cc1nc(NCc2cnn(Cc3ccnc(O)c3)c2)nc2c1NC(=O)[C@H](C)N2C` [Compound 202, (7S)-2-(((1-((2-hydroxypyridin-4-yl)methyl)-1H-pyrazol-4-yl)methyl)amino)-4,7,8-trimethyl-7,8-dihydropteridin-6(5H)-one] was at least 5000 nM.
For the compound `COc1cc(Cn2cc(CNc3nc(C)c4c(n3)N(C)[C@@H](C)C(=O)N4)cn2)ccn1` [Compound 203, (7S)-2-(((1-((2-methoxypyridin-4-yl)methyl)-1H-pyrazol-4-yl)methyl)amino)-4,7,8-trimethyl-7,8-dihydropteridin-6(5H)-one], where the note is “Homo sapiens, COLO 205, 5 h”, the IC50 was below 300 nM.
The same measure, in the same setting: the value for `Cc1nc(NCc2cnn(Cc3ccnc(C#N)c3)c2)nc2c1NC(=O)[C@H](C)N2C` [Compound 204, (7S)-4-((4-(((4,7,8-trimethyl-6-oxo-5,6,7,8-tetrahydropteridin-2-yl)amino)methyl)-1H-pyrazol-1-yl)methyl)picolinonitrile] was at least 5000 nM; that for `Cc1cc(F)ncc1Cn1cc(CNc2nc(C)c3c(n2)N(C)[C@@H](C)C(=O)N3C)cn1` [Compound 205, (7S)-2-(((1-((6-fluoro-4-methylpyridin-3-yl)methyl)-1H-pyrazol-4-yl)methyl)amino)-4,5,7,8-tetramethyl-7,8-dihydropteridin-6(5H)-one] was 300 to 1000 nM; that for `Cc1nc(NCc2cnn(Cc3cncc(C(F)(F)F)c3)c2)nc2c1NC(=O)[C@H](C)N2C` [Compound 206, (7S)-4,7,8-trimethyl-2-(((1-((5-(trifluoromethyl)pyridin-3-yl)methyl)-1H-pyrazol-4-yl)methyl)amino)-7,8-dihydropteridin-6(5H)-one] was below 300 nM.
